# Measured values reported in ChEMBL document CHEMBL1765071, “Single photon emission computed tomography/positron emission tomography imaging and targeted radionuclide therapy of melanoma: new multimodal fluorinated and iodinated radiotracers” (J Med Chem, 2011).
# Assays:
# [1] = system: Mus musculus; experiment: Biodistribution in mouse B16F0 cells bearing C57B16 mouse tumor assessed per volume of tissue at 7.4 MBq, iv after 2 hrs; format: ADME, organism-based, Neoplasm; settings: in vivo
# [2] = system: Mus musculus; experiment: Biodistribution in mouse B16F0 cells bearing C57B16 mouse tumor assessed per volume of tissue at 7.4 MBq, iv after 4 hrs; format: ADME, organism-based, Neoplasm; settings: in vivo
# [3] = system: Mus musculus; experiment: Biodistribution in mouse B16F10 cells bearing C57B16 mouse tumor assessed per volume of tissue at 7.4 MBq, iv after 2 hrs; format: ADME, organism-based, Neoplasm, B16-F10; settings: in vivo
# [4] = system: Mus musculus; experiment: Biodistribution in mouse B16F10 cells bearing C57B16 mouse tumor assessed per volume of tissue at 7.4 MBq, iv after 4 hrs; format: ADME, organism-based, Neoplasm, B16-F10; settings: in vivo
# [5] = system: Mus musculus; experiment: Biodistribution in mouse B16F0 cells bearing C57B16 mouse tumor at 1.26 to 5.29 MBq, iv after 7 days; format: ADME, organism-based, Neoplasm; settings: in vivo, 168 h
# [6] = system: Mus musculus; experiment: Biodistribution in mouse B16F0 cells bearing C57B16 mouse tumor at 1.26 to 5.29 MBq, iv after 6 hrs; format: ADME, organism-based, Neoplasm; settings: in vivo
# [7] = system: Mus musculus; experiment: Biodistribution in mouse B16F0 cells bearing C57B16 mouse tumor at 1.26 to 5.29 MBq, iv after 5 days; format: ADME, organism-based, Neoplasm; settings: in vivo, 120 h
# [8] = system: Mus musculus; experiment: Biodistribution in mouse B16F0 cells bearing C57B16 mouse tumor at 1.26 to 5.29 MBq, iv after 24 hrs; format: ADME, organism-based, Neoplasm; settings: in vivo
# [9] = system: Mus musculus; experiment: Biodistribution in mouse B16F0 cells bearing C57B16 mouse tumor at 1.26 to 5.29 MBq, iv after 3 hrs; format: ADME, organism-based, Neoplasm; settings: in vivo
# [10] = system: Mus musculus; experiment: Biodistribution in mouse B16F0 cells bearing C57B16 mouse tumor at 1.26 to 5.29 MBq, iv after 10 days; format: ADME, organism-based, Neoplasm; settings: in vivo, 240 h
# [11] = system: Mus musculus; experiment: Biodistribution in mouse B16F0 cells bearing C57B16 mouse tumor at 1.26 to 5.29 MBq, iv after 1 hr; format: ADME, organism-based, Neoplasm; settings: in vivo
# [12] = system: Mus musculus; experiment: Biodistribution in mouse B16F0 cells bearing C57B16 mouse tumor at 1.26 to 5.29 MBq, iv after 14 days; format: ADME, organism-based, Neoplasm; settings: in vivo, 336 h
# [13] = system: Mus musculus; experiment: Biodistribution in mouse B16F0 cells bearing C57B16 mouse tumor at 1.26 to 5.29 MBq, iv after 72 hrs; format: ADME, organism-based, Neoplasm; settings: in vivo
# [14] = system: Mus musculus; experiment: Biodistribution in mouse B16F0 cells bearing iv dosed C57B16 mouse tumor assessed as absorption dose; format: ADME, organism-based, Neoplasm; settings: in vivo
# [15] = Antitumor activity against mouse B16F0 cells bearing C57B16 mouse assessed as inhibition of tumor growth doubling time at 18.5 MBq, iv administered 2 times on day 6 and 10; format: functional
# [16] = Biodistribution in mouse B16F0 cells bearing C57B16 mouse feces at 2.7 MBq, iv after up to 24 hrs; format: ADME, organism-based; settings: in vivo
# [17] = Biodistribution in mouse B16F0 cells bearing C57B16 mouse urine at 2.7 MBq, iv after up to 24 hrs; format: ADME, organism-based; settings: in vivo
# [18] = Biodistribution in mouse B16F0 cells bearing C57B16 mouse urine at 2.7 MBq, iv after up to 82 hrs; format: ADME, organism-based; settings: in vivo
# [19] = system: Nucleic Acid; experiment: Ratio of drug uptake in tumor to muscle in mouse B16F0 cells bearing C57B16 mouse at 2.7 MBq, iv after 1 hr; format: ADME, organism-based; settings: in vivo
# [20] = Biodistribution in mouse B16F0 cells bearing C57B16 mouse feces at 2.7 MBq, iv after up to 72 hrs; format: ADME, organism-based; settings: in vivo
# [21] = system: Nucleic Acid; experiment: Ratio of drug uptake in tumor to muscle in mouse B16F0 cells bearing C57B16 mouse at 2.7 MBq, iv after 3 hrs; format: ADME, organism-based; settings: in vivo
# [22] = system: Mus musculus; experiment: Biodistribution in mouse B16F0 cells bearing C57B16 mouse throat at 2.7 MBq, iv after 1 hr; format: ADME, organism-based; settings: in vivo
# [23] = system: Mus musculus; experiment: Biodistribution in mouse B16F0 cells bearing C57B16 mouse throat at 2.7 MBq, iv after 10 days; format: ADME, organism-based; settings: in vivo, 240 h
Compound,Drug uptake [5] [% ID/g],Drug uptake [6] [% ID/g],Drug uptake [7] [% ID/g],Drug uptake [8] [% ID/g],Drug uptake [9] [% ID/g],Drug uptake [10] [% ID/g],Drug uptake [11] [% ID/g],Drug uptake [12] [% ID/g],Drug uptake [13] [% ID/g],other results
CCN(CCNC(=O)c1cnc2cc(I)ccc2n1)CCOc1cccnc1[18F],,,,,,,,,,Drug uptake [1]: 8.3 %ID; Drug uptake [2]: 0.6 %ID; Drug uptake [3]: 2.1 %ID; Drug uptake [4]: 0.2 %ID
CCN(CCNC(=O)c1cccc2c(=O)c3cc([125I])ccc3[nH]c12)CCOc1cccnc1F.Cl,4.3,13,4.5,16,13,2.7,10.7,2,8.6,
CCN(CCNC(=O)c1ccc2cc([125I])ccc2n1)CCOc1cccnc1F.Cl.Cl,1.1,9.7,2.3,6.3,10.8,0.4,10.7,0.2,3.2,
CCN(CCNC(=O)c1cn2cc([125I])ccc2n1)CCOc1cccnc1F.Cl.Cl,3.9,13.4,6.4,15.6,13.1,2.3,13.2,1.6,8.6,
CCN(CCNC(=O)c1cnc2cc([131I])ccc2n1)CCOc1cccnc1F.Cl.Cl,,,,,,,,,,Drug uptake [14]: 1.12 Gy/MBq; Time [15]: 3.8 days
CCN(CCNC(=O)c1cnc2cc([125I])ccc2n1)c1cccc(F)n1,0.2,1.8,0.3,0.9,2.2,,2,,0.4,
CCN(CCNC(=O)c1ccc2cncc([125I])c2n1)CCOc1cccnc1F.Cl.Cl,1.1,5.3,1.6,5.2,5.5,0.5,5.6,0.4,3.3,
CCN(CC)Cc1ccnc(F)c1CNC(=O)c1cnc2cc([125I])ccc2n1.Cl.Cl,1.5,6.7,2.4,6.4,6.5,0.8,5.6,0.7,4.1,
CCN(CCNC(=O)c1cccc2nc3cc([125I])ccc3nc12)CCOc1cccnc1F.Cl.Cl,2,13.8,3.7,13.8,12.3,1.2,11.4,0.7,5.8,
CCN(CC)CCNC(=O)c1cnc2cc([125I])ccc2n1.Cl.Cl,3.4,29.6,7.3,28,26.3,1.9,21.8,,12.3,
CCN(CC)CCNC(=O)c1cnc2cc([131I])ccc2n1.Cl.Cl,,,,,,,,,,Drug uptake [14]: 1.71 Gy/MBq
CCN(CCNC(=O)c1ccc2cc([125I])ccc2c1)CCOc1cccnc1F.Cl,2.1,7.4,2.8,5.9,8,0.2,7.9,0.6,,

# More lines, main results first:
Drug uptake [5] [% ID/g],Drug uptake [6] [% ID/g],Drug uptake [7] [% ID/g],Drug uptake [8] [% ID/g],Drug uptake [9] [% ID/g],Drug uptake [10] [% ID/g],Drug uptake [11] [% ID/g],Drug uptake [12] [% ID/g],Drug uptake [13] [% ID/g],Compound,other results
,12.1,5.1,12.1,8.8,,9.6,,9.6,CCN(CCNC(=O)c1ccnc(F)c1)CCNC(=O)c1cnc2cc([125I])ccc2n1.Cl.Cl,
1.5,12.5,2.6,8.6,13.7,0.8,13.1,0.4,5.7,CCN(CCNC(=O)c1cnc2cc([125I])ccc2n1)CCNc1cccc(F)n1.Cl.Cl,
3,14.5,5.2,11.2,13.3,1.6,12.1,1.1,7.7,CCN(CCNC(=O)c1cnc2cc([125I])ccc2n1)CCc1ccnc(F)c1.Cl.Cl,
2.5,14.1,5.1,16.3,9.3,1.4,9.1,0.7,9.5,CCN(CCCc1ccnc(F)c1)CCNC(=O)c1cnc2cc([125I])ccc2n1.Cl.Cl,
3.2,18.8,5.2,18.2,20.2,1.7,12.7,0.6,10.3,CCN(CCNC(=O)c1cnc2cc([125I])ccc2n1)CCOc1cccnc1F.Cl.Cl,Drug uptake [16]: 36.1 %ID; Drug uptake [17]: 38.1 %ID; Drug uptake [18]: 45.1 %ID; Ratio [19]: 23; Drug uptake [20]: 18.7 %ID; Ratio [21]: 37; Drug uptake [22]: 1.5 %ID; Drug uptake [23]: 0.1 %ID
,15.4,7.1,16,12,1.9,10.3,0.8,10,CCN(CCNC(=O)c1cnc2cc([125I])ccc2n1)Cc1ccnc(F)c1.Cl.Cl,
